# Results: patent US20230115176A1 (Ra Pharmaceuticals, Inc., priority 2019, published 2023)
# Legend:
# [1] = target: human C5 complement protein (Homo sapiens, UniProt P01031); assay: Surface plasmon resonance (SPR), immobilized human C5, 37° C. (Example 12, Table 21); type: binding; details: where a range of compound concentrations were analyzed, the lowest value obtained
# From the text: (§1) Compound CU0136 is a racemic mixture of Compound CU0186 and CU0187. Numbers in parenthesis following compound numbers indicate alternate enantiomers (as distinguished by retention time during chromatographical separation).
# Human C5 [2] = target: T1, Human C5 (Homo sapiens, UniProt P01031); assay: Red blood cell (RBC) hemolysis assay, luminescent (Example 13, Table 22); type: cell-based; details: sheep EA cells, […] C5-depleted human serum, 0.5 nM human C5, 1 hour 37° C., luminescence; also: 1.5% C5-depleted human serum
# T1 construct: purchased Complement Technology
# From the text: as §1
# Human C5 [3] = target: T1, Human C5; assay: Surface plasmon resonance (SPR), compounds on immobilized human C5 (Example 2, Table 5); type: binding; details: lowest value where a range of compound concentrations were analyzed
# purified human C5 = purified human C5 (Homo sapiens, UniProt P01031); assay: Red blood cell hemolysis assay, optical, absorbance 412 nm (Example 3, Table 6); type: cell-based; details: antibody-sensitized sheep erythrocytes, 1.5% human C5 depleted sera, 0.5 nM human C5; average where replicates
# Chain of purified human C5 (P01031 19-1676): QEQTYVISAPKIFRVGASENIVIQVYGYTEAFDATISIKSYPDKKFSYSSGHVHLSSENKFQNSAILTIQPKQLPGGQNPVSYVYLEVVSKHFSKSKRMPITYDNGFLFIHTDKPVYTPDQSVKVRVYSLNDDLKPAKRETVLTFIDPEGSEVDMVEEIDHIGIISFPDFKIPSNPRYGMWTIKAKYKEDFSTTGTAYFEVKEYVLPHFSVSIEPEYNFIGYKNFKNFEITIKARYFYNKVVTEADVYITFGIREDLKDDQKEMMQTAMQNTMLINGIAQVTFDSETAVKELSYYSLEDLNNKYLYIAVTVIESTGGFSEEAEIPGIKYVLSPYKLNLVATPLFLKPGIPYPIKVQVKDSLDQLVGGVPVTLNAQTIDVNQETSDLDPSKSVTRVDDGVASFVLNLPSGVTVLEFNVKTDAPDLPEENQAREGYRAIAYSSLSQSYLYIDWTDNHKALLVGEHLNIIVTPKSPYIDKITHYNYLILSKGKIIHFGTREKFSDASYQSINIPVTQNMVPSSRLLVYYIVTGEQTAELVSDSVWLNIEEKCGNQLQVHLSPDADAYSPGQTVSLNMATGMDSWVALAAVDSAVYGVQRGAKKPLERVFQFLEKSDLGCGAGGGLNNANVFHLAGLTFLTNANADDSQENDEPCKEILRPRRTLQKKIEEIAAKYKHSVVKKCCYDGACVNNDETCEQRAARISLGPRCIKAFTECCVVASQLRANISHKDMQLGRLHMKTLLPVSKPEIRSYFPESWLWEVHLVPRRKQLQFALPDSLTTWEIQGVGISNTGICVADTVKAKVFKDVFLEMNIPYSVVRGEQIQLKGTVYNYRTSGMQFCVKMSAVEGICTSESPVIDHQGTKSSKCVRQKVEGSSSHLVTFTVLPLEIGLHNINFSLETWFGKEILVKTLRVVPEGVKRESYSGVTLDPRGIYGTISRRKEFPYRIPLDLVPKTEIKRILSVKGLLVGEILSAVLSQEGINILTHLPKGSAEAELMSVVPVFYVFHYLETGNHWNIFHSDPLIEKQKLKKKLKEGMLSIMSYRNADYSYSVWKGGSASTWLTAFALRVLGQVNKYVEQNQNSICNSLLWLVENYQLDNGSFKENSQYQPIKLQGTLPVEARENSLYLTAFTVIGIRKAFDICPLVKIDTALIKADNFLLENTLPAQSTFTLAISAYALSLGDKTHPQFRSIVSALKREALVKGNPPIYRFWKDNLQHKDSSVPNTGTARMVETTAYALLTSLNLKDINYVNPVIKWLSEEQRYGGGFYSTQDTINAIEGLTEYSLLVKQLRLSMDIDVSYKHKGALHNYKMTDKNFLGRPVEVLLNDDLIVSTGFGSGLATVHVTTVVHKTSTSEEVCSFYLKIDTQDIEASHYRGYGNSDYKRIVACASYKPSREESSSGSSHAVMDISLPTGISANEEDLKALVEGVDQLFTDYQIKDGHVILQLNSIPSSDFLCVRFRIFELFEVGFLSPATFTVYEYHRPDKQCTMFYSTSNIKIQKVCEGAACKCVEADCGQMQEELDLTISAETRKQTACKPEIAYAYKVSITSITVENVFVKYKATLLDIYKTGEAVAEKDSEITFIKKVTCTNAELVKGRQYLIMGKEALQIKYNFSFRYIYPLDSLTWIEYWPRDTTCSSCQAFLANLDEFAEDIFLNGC
# Chain of human C5 complement protein (P01031 19-1676): as above
# T1 sequence (P01031 19-1676): as above
SMILES,Kd [1] [nM],Kd (Human C5 [3]) [nM],IC50 (Human C5 [2]) [nM],IC50 (purified human C5) [nM]
"CCCCCOc1cc(N2CCCN(Cc3ccnc4c3ccn4C3CCN(C)C3=O)C2=O)ccc1OC (single isomer, unassigned) [CU0039(1)]",28,–,30,–
CCCCCOc1cc(N2CCN(Cc3ccccc3OC)C2=O)ccc1OC [CU0001],29.5,–,35.6,–
CCCCCOc1cc(N2CCN(Cc3cc(F)ccc3OC)C2=O)ccc1OC [CU0002],83.5,–,42,–
CCCCCOc1cc(N2CCCN(Cc3cc(F)ccc3OC)C2=O)ccc1OC [CU0003],14,–,28.4,–
CCCCCOc1cc(N2CCN(Cc3ccc(C(C)(C)O)cc3OC)C2=O)ccc1OC [CU0004],10.5,–,12.1,–
CCCCCOc1cc(N2CCCN(Cc3ccc(CCC(=O)N(CC)CC)cc3OC)C2=O)ccc1OC [CU0008],6.5,–,62.9,–
CCCCCOc1cc(N2CCCN(Cc3ccccc3Cl)C2=O)ccc1OC [CU0010],74.5,–,34.9,–
CCCCCOc1cc(N2CCN(Cc3cccc(F)c3Cl)C2=O)ccc1OC [CU0011],816,–,886,–
CCCCCOc1cc(N2CCCN(Cc3cccc(F)c3Cl)C2=O)ccc1OC [CU0012],326,–,128,–
CCCCCOc1cc(N2CCN(Cc3cc(F)ccc3Cl)C2=O)ccc1OC [CU0013],454,–,602,–
CCCCCOc1cc(N2CCCN(Cc3cc(F)ccc3Cl)C2=O)ccc1OC [CU0014],174,–,77.6,–
CCCCCOc1cc(N2CCN(Cc3cccnc3OC)C2=O)ccc1OC [CU0017],188,–,106,–
CCCCCOc1cc(N2CCCN(Cc3cccnc3OC)C2=O)ccc1OC [CU0018],27.5,–,40.6,–
CCCCCOc1cc(N2CCCN(Cc3cccc4c3ccn4C3CCN(C)C3=O)C2=O)ccc1OC (stereo not drawn) [CU0020],3,–,17.2,–
CCCCCOc1cc(N2CCCN(Cc3cccc4c3ccn4CC3(O)CCNCC3)C2=O)ccc1OC [CU0021],1.5,–,14.5,–
CCCCCOc1cc(N2CCCN(Cc3cccc4c3ccn4CC3(O)CCN(C)CC3)C2=O)ccc1OC [CU0022],2.9,–,17.1,–
CCCCCOc1cc(N2CCCN(Cc3cccc4c3ccn4Cc3nncn3C)C2=O)ccc1OC [CU0024],5,–,12.9,–
CCCCCOc1cc(N2CCCN(Cc3cccc4c3ccn4CC(=O)N(C)C)C2=O)ccc1OC [CU0025],5,–,13.6,–
COc1ccc(N2CCCN(Cc3cccc4c3ccn4CC(=O)N(C)C)C2=O)cc1OCCCC(C)(F)F [CU0027],14,–,22.5,–
CCCCCOc1cc(N2CCCN(Cc3cccc4c3ccn4CC(=O)N3CCNC(=O)C3)C2=O)ccc1OC [CU0028],5,–,8.9,–
CCCCCOc1cc(N2CCCN(Cc3cccc4c3ccn4CC(=O)N3CCOCC3)C2=O)ccc1OC [CU0029],2.1,–,15,–
CCCCCOc1cc(N2CCCN(Cc3cccc4c3ccn4CC(=O)N3CCOC(C)(C)C3)C2=O)ccc1OC [CU0030],1.8,–,26.9,–
CCCCCOc1cc(N2CCCN(Cc3cccc4c3ccn4CC(=O)N3CCOC(COC)C3)C2=O)ccc1OC (stereo not drawn) [CU0031],6,–,15.7,–
CCCCCOc1cc(N2CCCN(Cc3ccnc4[nH]ccc34)C2=O)ccc1OC [CU0032],47.5,–,51.8,–
CCCCCOc1cc(N2CCN(Cc3ccnc4c3ccn4CC(=O)N(C)C)C2=O)ccc1OC [CU0033],62,–,136,–
CCCCCOc1cc(N2CCCN(Cc3ccnc4c3ccn4CC(=O)N(C)C)C2=O)ccc1OC [CU0035],33.5,–,30.8,–
CCCCCOc1cc(N2CCCN(Cc3ccnc4c3ccn4CC(=O)N(C)C)C2=O)ccc1C1CC1 [CU0036],25,–,121,–
CCCCCOc1cc(N2CCCN([C@@H](C)c3ccnc4c3ccn4CC(=O)N(C)C)C2=O)ccc1OC [CU0037],15.5,–,47.1,–

# Now from value to compound, other results behind:
Kd [1] [nM],Kd (Human C5 [3]) [nM],SMILES,IC50 (Human C5 [2]) [nM],IC50 (purified human C5) [nM]
6.5,–,"CCCCCOc1cc(N2CCCN(Cc3ccnc4c3ccn4C3CCN(C)C3=O)C2=O)ccc1OC (single isomer, unassigned) [CU0039(2)]",30.1,–
17,–,CCCCCOc1cc(N2CCCN(Cc3ccnc4c3ccn4CC(=O)N3CC[C@@H](OC)C3)C2=O)ccc1OC [CU0041],55.2,–
106,–,CCCCCOc1cc(N2CCN(Cc3ccnc4c3ccn4CC(=O)N3CCOCC3)C2=O)ccc1OC [CU0042],63.1,–
16.5,–,CCCCCOc1cc(N2CCCN(Cc3ccnc4c3ccn4CC(=O)N3CCOCC3)C2=O)ccc1OC [CU0043],29.5,–
35.5,–,CCCCCOc1cc(N2CCCN(Cc3ccnc4c3ccn4CC(=O)N3CCOCC3)C2=O)ccc1C1CC1 [CU0044],87.7,–
26,–,CCCCCOc1cc(N2CCCN([C@@H](C)c3ccnc4c3ccn4CC(=O)N3CCOCC3)C2=O)ccc1OC [CU0045],32.8,–
15.5,–,CCCCCOc1cc(N2CCCN(Cc3ccnc4c3ccn4CC(=O)N3CCOC(CCO)C3)C2=O)ccc1OC (stereo not drawn) [CU0046],38.9,–
18.5,–,CCCCCOc1cc(N2CCCN(Cc3ccnc4c3ccn4CC(=O)N3CCOC(COC)C3)C2=O)ccc1OC (stereo not drawn) [CU0048],57.3,–
21,–,CCCCCOc1cc(N2CCCN(Cc3ccnc4c3ccn4CC(=O)N3CCOC(C)(COC)C3)C2=O)ccc1OC (stereo not drawn) [CU0049],44.7,–
9,–,CCCCCOc1cc(N2CCCN(Cc3ccnc4c3ccn4CC(=O)N3CCOC(CN(C)C)C3)C2=O)ccc1OC (stereo not drawn) [CU0050],18,–
8,–,CCCCCOc1cc(N2CCCN(Cc3ccnc4c3ccn4CC(=O)N3CCOC(CN4CCCC4)C3)C2=O)ccc1OC (stereo not drawn) [CU0051],45.9,–
10.5,–,CCCCCOc1cc(N2CCCN([C@@H](C)c3ccnc4c3ccn4CC(=O)N3CCCOCC3)C2=O)ccc1OC [CU0055],31.2,–
23,–,CCCCCOc1cc(N2CCCN(Cc3ccnc4c3ccn4CC(=O)N3CCN(C4CC4)CC3)C2=O)ccc1OC [CU0056],48.8,–
18,–,CCCCCOc1cc(N2CCCN(Cc3ccnc4c3ccn4CC(=O)N3CCN(CCOC)CC3)C2=O)ccc1OC [CU0057],22.4,–
13.5,–,CCCCCOc1cc(N2CCCN(Cc3ccnc4c3ccn4CC(=O)N3CCNC(=O)C3)C2=O)ccc1OC [CU0059],32.9,–
2.4,–,CCCCCOc1cc(N2CCCN(Cc3ccc(CC(=O)N4CCNC(=O)C4)cc3OC)C2=O)ccc1OC [CU0101],–,–
–,2100,"COc1ccc(NC(=O)N(C)CC(O)c2ccc(O)cc2)cc1OCCCC(C)C (stereo not drawn) [SM0071, 1-[2-hydroxy-2-(4-hydroxyphenyl)ethyl]-3-(3-isohexyloxy-4-methoxy-phenyl)-1-methyl-urea]",–,8660
–,8200,COc1ccc(NC(=O)N[C@@H](CO)c2ccccc2)cc1OCCC(C)C [SM0072],–,8680
–,3200,COc1ccc(NC(=O)N[C@@H](CO)c2ccccc2)cc1C(F)(F)F [SM0073],–,9260
–,3600,COc1ccc(NC(=O)NCC(O)c2ccc(O)cc2)cc1OCCCC(C)C (stereo not drawn) [SM0074],–,9360
–,1300,CC(C)CCCOc1cc(NC(=O)N[C@@H](CO)c2ccccc2)ccc1F [SM0075],–,11500
–,9400,COc1ccc(NC(=O)NCc2cccc(C#N)c2)cc1OCCCC(C)C [SM0076],–,11700
–,3600,COc1ccc(NC(=O)NCC(O)c2ccccn2)cc1OCCCC(C)C (stereo not drawn) [SM0078],–,12600
–,144,COc1ccc(NC(=O)NCc2cnccn2)cc1OCCCC(C)C [SM0080],–,13000
–,1600,COc1ccc(NC(=O)NCC(O)c2ccccc2)cc1OCCCC(C)C (stereo not drawn) [SM0081],–,13000
–,6400,COc1ccc(NC(=O)N[C@@H](CO)c2ccccc2)cc1OCCOC(C)C [SM0083],–,15400
–,310,COCCCOc1cc(NC(=O)N[C@@H](CO)c2ccccc2)ccc1OC [SM0084],–,16100
–,9900,CCCCCc1cccc(NC(=O)N[C@@H](CO)c2ccccc2)c1 [SM0087],–,16700
